Assay results from patent US20150353495A1 (PORTOLA PHARMACEUTICALS, INC., priority 2010, published 2015).

How the values were obtained:
[1] = test system: JAK1/3 signaling to STAT6 in Ramos B cells; assay: IL4 stimulation of JAK1/3 signaling to STAT6 in Ramos B cells (pSTAT6 Y641, FACS); assay type: cell-based; details: Homo sapiens; for inhibition at 0.2 µM: 0.2 uM compound, read-out: IL-4/STAT6 in Ramos Percent Inhibition at 0.2 uM; for inhibition at 1 µM: 1.0 uM compound, read-out: IL-4/STAT6 in Ramos Percent Inhibition at 1.0 uM
How it was run: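 Ramos cells in 10% FCS medium were pre-treated 1 h with compound, stimulated 15 min with 15 ng IL4, fixed in 2% paraformaldehyde and methanol-permeabilized. Intracellular phospho-STAT6 Y641 was stained with PE-conjugated antibody and quantified by flow cytometry.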

[2] = target: T1, full length active recombinant SYK enzyme (Homo sapiens, UniProt P43405); assay: Inhibition of Syk tyrosine phosphorylation activity (LANCE TR-FRET); assay type: biochemical
T1 construct: full length active recombinant SYK enzyme (Millipore, Calif.); purchased Millipore
From the text: This example illustrates methods for evaluating the compounds of the invention, along with results obtained for such assays. The in vitro and in vivo human Syk activities of the inventive compounds can be determined by various procedures known in the art, such as a test for their ability to inhibit the activity of human plasma Syk. […] The IC50 value is the concentration (in nM) of the compound required to provide 50% inhibition of human Syk proteolytic activity.
An in vitro assay for detecting and measuring inhibition activity against Syk is as follows:
Inhibition of Syk Tyrosine Phosphorylation Activity
Potency of candidate molecules for inhibiting Syk tyrosine phosphorylation activity is assessed by measuring the ability of a test compound to inhibit Syk-mediated tyrosine phosphorylation of a Syk-specific substrate.
SYK tyrosine phosphorylation activity is measured using the LANCE™ Technology developed by Perkin Elmer Life and Analytical Sciences (Boston, Mass.). LANCE™ refers to homogeneous time resolved fluorometry applications using techniques such as time-resolved fluorescence resonance energy transfer assay (TR-FRET) (see generally for procedures in Perkin Elmer Application Note-How to Optimize a Tyrosine Kinase Assay Using Time Resolved Fluorescence-Based LANCE Detection, wwww.perkinelmer.com/lifesciences). The assay principle involves detection of a phosphorylated substrate using energy transfer from a phosphospecific europium-labeled antibody to streptavidin-allophycocyanin as an acceptor.
To test the ability of candidate molecules to inhibit SYK tyrosine phosphorylation activity, molecules are reconstituted in 30% DMSO and serially diluted 1:3 with the final dilution containing DMSO in the absence of the candidate molecule. The final DMSO concentration in the assay is 3%. Kinase assays are performed as a two part reaction. The first reaction is a kinase reaction and which comprises of a candidate molecule, full length active recombinant SYK enzyme (Millipore, Calif.) and biotin-labeled SYK-specific substrate biotin-[…]-OH. The second reaction involves termination of the kinase reaction and the simultaneous addition of the detection reagents-europium-labeled anti-phosphotyrosine reagent (Eu-W1024-PY100, Perkin Elmer, Boston, Mass.) and Streptavidin-Allophycocyanin detection reagent (SA-APC, Prozyme, CA). The kinase reaction is performed in a black U-bottom 96-well microtitre plate. The final reaction volume is 50 μL and contains a final concentration of 1 nM active SYK enzyme, 550 nM SYK-substrate, and 100 nM ATP diluted in a buffer containing 50 mM Tris pH 7.5, 5 mM MgCl2, and 1 mM DTT. The reaction is allowed to proceed for 1 hour at room temperature. The quench buffer contains 100 mM Tris pH 7.5, 300 mM NaCl2, 20 mM EDTA, 0.02% Brij35, and 0.5% BSA. The detection reagents are added to the reaction mixture at the following dilutions-1:500 for Eu-W1024-PY100 and 1:250 for SA-APC. The kinase reaction is terminated by the addition of 50 μL quench buffer containing the detection reagents. […] Detection of the phosphorlated substrate in the absence and presence of inhibitors is measured in the TR-FRET instrument, Analyst HT (Molecular Probes, Sunnyvale, Calif.) and the condition for measurements are set up using CriterionHost Release 2.0 (Molecular Probes, Sunnyvale, Calif.). […] Inhibition of SYK-tyrosine kinase activity is calculated as the maximum response observed in the presence of inhibitor, compared to that in the absence of inhibitor. […]

Row | IC50 [2] [nM] | SMILES | inhibition at 0.2 µM [1] [%] | inhibition at 1 µM [1] [%]
1 | > 1000 | CC(=O)N1CCN(c2ccc(Nc3cc(NC4CC4)c(C(N)=O)cn3)cc2)CC1 [Example 2] | 29 | 77
2 | > 1000 | CC(=O)N1CCN(c2ccc(Nc3cc(NCc4cccc(F)c4)c(C(N)=O)cn3)cc2)CC1 [Example 229] | 38 | 67
